Reference: patent publication US8058243B2, “Method for treating a brain cancer with ifenprodil” (HSC Research and Development Limited Partnership, priority 2006, dated 2011)
Counter-ions that a name gives are not always drawn. Like-named read-outs stand apart in the source and are kept apart here.

Tested on: murine neural precursor cells (neurosphere cultures)
Experiment: HTS of LOPAC library against secondary neurosphere cultures, MTT proliferation assay at 3 μM, day 7 (z score, P value)
Type: cell-based, mouse
[1] = LOPAC library screen, 3 μM, MTT, secondary neurosphere cultures, day 7
[2] = LOPAC primary screen, neurosphere MTT proliferation, 3 μM, day 7
[3] = LOPAC library screen, 3 μM, MTT, neurosphere cultures
[4] = yes/no: significantly inhibited neurosphere proliferation (P<0.01) in the primary screen
[5] = yes/no: significantly inhibited neurosphere proliferation in primary screen
[6] = LOPAC library screen at 3 μM, secondary neurosphere cultures, MTT
[7] = LOPAC screen, neurosphere MTT proliferation, 3 μM, day 7
[8] = yes/no: significantly inhibited neurosphere proliferation (P<0.01) in primary screen
[9] = yes = significantly inhibited neurosphere proliferation (P<0.01) in the primary screen
[10] = LOPAC library screen at 3 μM, MTT, secondary neurosphere cultures, screened in singlets
[11] = primary LOPAC screen, 3 μM, MTT, neurosphere proliferation
[12] = yes/no: significantly inhibited neurosphere proliferation in the primary screen

CC(C)OC(=O)C(C)(C)Oc1ccc(C(=O)c2ccc(Cl)cc2)cc1 [Fenofibrate]
Z Score [1]: −2.116 | Z score [2]: −2.116

CCC1(c2ccccc2)C(=O)NCNC1=O [Primidone]
Activity: no | Z Score [3]: 0.6187 | Z score [2]: 0.619

Nc1nc(O)c2ncn(COC(CO)CO)c2n1 [Ganciclovir]
Z Score [1]: −8.939 | Z score [2]: −8.939 | Activity [4]: yes

C[C@@H]1O[C@H](C[N+](C)(C)C)C[C@H]1O.[Cl-] [(B1)-Muscarine chloride]
Z Score: −1.905

R(−)-N-Allylnorapomorphine hydrobromide
Z Score: −7.839 | Z score [2]: −7.839 | Activity [4]: yes

CC(C)Cc1ccc(C(C)C(=O)O)cc1 (centres unmarked) [(B1)-Ibuprofen]
Z Score: −0.2623

O=C(OCCN1CCOCC1)C1(c2ccccc2)CCCCC1 [PRE-084]
Z Score: 1.311 | Z score [2]: 1.311 | Activity [4]: no

COc1ccc(OC)c(C(O)C(C)N)c1 (centres unmarked) [Methoxamine hydrochloride]
Z Score [1]: −3.255 | Z score [2]: −3.255 | Activity [4]: yes

CCCCCCCCC(=O)NCc1ccc(O)c(OC)c1 [N-Vanillylnonanamide]
Z Score [1]: −9.029 | Z score [2]: −9.029 | Activity [4]: yes

CC(C)[N+](C)(CCOC(=O)C1c2ccccc2Oc2ccccc21)C(C)C [Propantheline bromide]
Z Score (168 h, 3 µM): −1.534 | Z score (168 h, 3 µM): −1.534 | Activity [5]: no

Nc1cc(=O)[nH]c(N)n1 [2,6-Diamino-4-pyrimidinone]
Z Score [6]: −1.072 | Z score [7]: −1.072 | Activity [8]: no

CN1CCN(c2ccc3ccccc3n2)CC1.O=C(O)/C=C\C(=O)O.O=C(O)/C=C\C(=O)O [Quipazine, N-methyl-, dimaleate]
Z Score [6]: −0.3254 | Z score [2]: −0.325 | Activity [5]: no

CCCOc1ccccc1-c1nc2nn[nH]c2c(=O)[nH]1 [Zaprinast]
Z Score [1]: −2.506 | Z score [2]: −2.506 | Activity [9]: yes

NC(=O)c1ncn([C@@H]2O[C@H](CO)[C@@H](O)[C@H]2O)c1O [Mizoribine]
Z Score [10]: 1.642

CC[N+](C)(CC)CC(=O)Nc1c(C)cccc1C.[Cl-] [Lidocaine N-methyl hydrochloride]
Z Score [6]: −0.6828 | Z score [2]: −0.683 | Activity [8]: no

CO/N=C(\C(=O)N[C@@H]1C(=O)N2C(C(=O)O)=C(CSc3nc(=O)c(=O)[nH]n3C)CS[C@H]12)c1csc(N)n1 [Ceftriaxone sodium]
Activity: no | Z Score [10]: 2.23 | Z score [2]: 2.230

O=c1[nH]c2ccccc2n1CCCN1CCN(C(c2ccccc2)c2ccccc2)CC1 [Oxatomide]
Z Score [3]: 0.5957 | Z score [2]: 0.596 | Activity [5]: no

CC(N)Cc1c[nH]c2ccc(O)cc12.O=C(O)/C=C\C(=O)O (stereo not drawn) [alpha-Methyl-5-hydroxytryptamine maleate]
Z Score: −0.7796 | Z score [2]: −0.780 | Activity [9]: no

C[C@@H]1O[C@H](C[N+](C)(C)C)CS1.[I-] [OXA-22 iodide]
Activity: no | Z Score: −1.666 | Z score: −1.666

NCCc1c[nH]c2ccc(O)cc12 [Serotonin hydrochloride]
Z Score (168 h, 3 µM): −2.197 | Z score (168 h, 3 µM): −2.197 | Activity [8]: no

Cl.c1ccc2c(N3CCNCC3)cccc2c1 [1-(1-Naphthyl)piperazine hydrochloride]
Z Score: 0.2301 | Z score [2]: 0.230 | Activity [5]: no

COc1cccc(OC)c1OCCNCC1CSc2ccccc2O1 (centres unmarked) [Benoxathian hydrochloride]
Z Score (168 h, 3 µM): 0.2653 | Z score (168 h, 3 µM): 0.265 | Activity [8]: no

Cl.N[C@@H](Cc1c[nH]cn1)C(=O)O [L-Histidine hydrochloride]
Z Score: −1.421 | Z score [2]: −1.421 | Activity [8]: no

C[C@H]1O[C@@H](n2cc(F)c(=O)[nH]c2=O)[C@H](O)[C@@H]1O [5-fluoro-5′-deoxyuridine]
Z Score [3]: 0.3787 | Z score [2]: 0.379 | Activity [8]: no

CCOC(=O)c1ncn2c1CN(C)C(=O)c1cc(F)ccc1-2 [Flumazenil]
Activity: no | Z Score [6]: −0.3664 | Z score [2]: −0.366

CCN1CCC[C@H]1CNC(=O)c1c(OC)ccc(I)c1O [S(−)-IBZM]
Z Score: −0.1166 | Z score [2]: −0.117 | Activity [4]: no

CCCCC[C@H](CC(=O)NO)C(=O)N[C@H](C(=O)N1CCC[C@H]1CO)C(C)C [Actinonin]
Z Score (168 h, 3 µM): −3.501 | Z score (168 h, 3 µM): −3.501 | Activity [9]: yes

N#C/C(=C\c1ccc(O)c(O)c1)C(=O)c1ccc(O)c(O)c1 [Tyrphostin AG 538]
Z Score: −0.3955 | Z score [11]: −0.395 | Activity [12]: no

CC(C)NCC(O)c1ccc(NS(C)(=O)=O)cc1.Cl (centres unmarked) [(B1)-Sotalol hydrochloride]
Z Score: −0.813

S(−)-Willardiine
Z Score: 1.251 | Z score [11]: 1.251 | Activity [12]: no

Cl.NO [Hydroxylamine hydrochloride]
Activity: no | Z Score: 1.635 | Z score: 1.635

O-(Carboxymethyl)hydroxylamine hemihydrochloride
Z Score: −2.058 | Z score [11]: −2.058 | Activity [12]: no

COc1ccc2c(c[n+](C)c3c4cc5c(cc4ccc23)OCO5)c1OC [Chelerythrine (36), Chelerythrine, reference compound]
Z Score [1]: −10.67 | Z score [2]: −10.671 | Activity [4]: yes

c1ccc2c(CC3=NCCN3)cccc2c1 [Naphazoline hydrochloride]
Z Score [1]: −1.724 | Z score [2]: −1.724 | Activity [9]: no

CCCCOC(=O)NS(=O)(=O)c1sc(CC(C)C)cc1-c1ccc(Cn2c(CC)nc3c(C)cc(C)nc32)cc1 [L-162,313]
Z Score: 0.7923 | Z score [2]: 0.792 | Activity [8]: no

CCCCC1C(=O)N(c2ccccc2)N(c2ccccc2)C1=O [Phenylbutazone]
Z Score [3]: 0.7902 | Z score [2]: 0.790

Cc1ccccc1N1C(=O)c2cc(S(N)(=O)=O)c(Cl)cc2NC1C (centres unmarked) [Metolazone]
Z Score [1]: −8.113 | Z score [2]: −8.113 | Activity [9]: yes

CO[C@@]1(NC(=O)CSCC#N)C(=O)N2C(C(=O)O)=C(CSc3nnnn3C)CS[C@@H]21 [Cefmetazole sodium]
Z Score [10]: 2.503 | Z score [7]: 2.503 | Activity [8]: no

Iproniazid phosphate
Z Score [6]: −0.2492 | Z score [2]: −0.249 | Activity [8]: no

Cc1cc(N)c2ccccc2[n+]1CCCCCCCCCCCCCC[n+]1c(C)cc(N)c2ccccc21 [Dequalinium analog, C-14 linker]
Z Score [1]: −11.27 | Z score [2]: −11.274 | Activity [4]: yes

(−)-Eseroline fumarate
Z Score: 0.6339 | Z score [2]: 0.634 | Activity [8]: no

Cl.O=C(OC1CCN(CCCl)CC1)C(c1ccccc1)c1ccccc1 [4-Diphenylacetoxy-N-(2-chloroethyl)piperidine hydrochloride]
Z Score: 0.8645 | Z score [2]: 0.864 | Activity [8]: no

Clc1ccc(C(c2ccc(Cl)cc2)n2cc[n+](CC(OCc3ccc(Cl)cc3Cl)c3ccc(Cl)cc3Cl)c2)cc1 (centres unmarked) [Calmidazolium chloride]
Z Score (168 h, 3 µM): −8.582 | Z score (168 h, 3 µM): −8.582 | Activity [9]: yes

Cc1cc(C)c(NC(=O)C[C@H](CC(=O)O)c2cccc3ccccc23)c(C(=O)N2CCC3(CCCC3)CC2)c1 [CR 2945]
Z Score (168 h, 3 µM): 0.5451 | Z score (168 h, 3 µM): 0.545 | Activity [8]: no

Nc1ccn([C@H]2CC[C@@H](CO)O2)c(=O)n1 [2′,3′-dideoxycytidine]
Z Score [1]: −1.367 | Z score [2]: −1.367 | Activity [4]: no

CN[C@H](CC(C)C)C(=O)N[C@H]1C(=O)N[C@@H](CC(N)=O)C(=O)N[C@H]2C(=O)N[C@H]3C(=O)N[C@H](C(=O)N[C@H](C(=O)O)c4cc(O)cc(O)c4-c4cc3ccc4O)[C@H](O)c3ccc(c(Cl)c3)Oc3cc2cc(c3O[C@@H]2O[C@H](CO)[C@@H](O)[C@H](O)[C@H]2O[C@H]2C[C@](C)(N)[C@H](O)[C@H](C)O2)Oc2ccc(cc2Cl)[C@H]1O.Cl
Z Score [3]: −0.06352 | Z score [11]: −0.064 | Activity [12]: no

O=C(O)CCCCCCC1C(=O)NC(=O)N1CCC(O)C1CCCCC1 (centres unmarked) [BW 245C]
Z Score: 1.036 | Z score [2]: 1.036 | Activity [5]: no

CN1CCC(=C2c3ccccc3C=Cc3ccccc32)CC1 [Cyproheptadine hydrochloride]
Z Score (168 h, 3 µM): 1.232 | Z score (168 h, 3 µM): 1.232 | Activity [8]: no

NS(=O)(=O)Cc1noc2ccccc12 [Zonisamide sodium]
Z Score [6]: −0.9169 | Z score [11]: −0.917 | Activity [12]: no

C#CCn1c(=O)c2c(ncn2C)n(C)c1=O [3,7-Dimethyl-I-propargylxanthine]
Z Score: 1.454 | Z score [7]: 1.454 | Activity [8]: no

Cc1cc(O)c2c(c1)C(=O)c1cc(O)cc(O)c1C2=O [Emodin]
Z Score (168 h, 3 µM): −0.4835 | Z score (168 h, 3 µM): −0.483 | Activity [8]: no

Br.Br.N=C(N)SCCN [2-(2-Aminoethyl)isothiourea dihydrobromide]
Z Score (168 h, 3 µM): −1.251 | Z score (168 h, 3 µM): −1.251 | Activity [12]: no

Cc1[nH]c2ccc(O)cc2c1CCN.O=C(O)/C=C\C(=O)O [2-Methyl-5-hydroxytryptamine maleate]
Z Score: 0.5718 | Z score [2]: 0.572 | Activity [9]: no
